Data from ChEMBL document CHEMBL5244280, “Evodiamine Lowers Blood Lipids by Up-Regulating the PPARγ/ABCG1 Pathway in High-Fat-Diet-Fed Mice” (J Nat Prod, 2021).
Calls of active or inactive are those of the source. The rule behind the calls is not given here.

How the values were obtained:
[1] = Toxicity in normal diet fed ICR mouse assessed as ratio of heart weight to body weight at 10 mg/kg, ig administered daily via gavage for 8 weeks (reference value: 0.46 +/-0.03); format: organism-based; settings: in vivo, po, 1344 h
Mus musculus [2] = assay: Protection against hyperlipidemia in high fat diet-fed hyperlipidemic ICR mouse model assessed as reduction in hepatic triglyceride content at 10 mg/kg, ig administered daily via gavage for 8 weeks by colorimetric assay; format: functional; settings: po, 1344 h
Mus musculus [3] = assay: Protection against hyperlipidemia in high fat diet-fed hyperlipidemic ICR mouse model assessed as reduction in serum triglyceride content at 10 mg/kg, ig administered daily via gavage for 8 weeks by spectrophotometric analysis; format: functional; settings: po, 1344 h
Mus musculus [4] = assay: Protection against hyperlipidemia in high fat diet-fed hyperlipidemic ICR mouse model assessed as reduction in serum LDL-C content at 20 mg/kg, ig administered daily via gavage for 8 weeks by spectrophotometric analysis; format: functional, organism-based
[5] = biological target: T1, Retinoic acid receptor RXR-alpha (Homo sapiens) (UniProt P19793); assay: Agonist activity at human RXR-alpha expressed in HEK293 cells co-transfected with luciferase reporter plasmid assessed as receptor transactivation at 10 uM incubated for 18 hrs by luciferase reporter gene assay relative to control; format: cell-based
T1 sequence (whole entry): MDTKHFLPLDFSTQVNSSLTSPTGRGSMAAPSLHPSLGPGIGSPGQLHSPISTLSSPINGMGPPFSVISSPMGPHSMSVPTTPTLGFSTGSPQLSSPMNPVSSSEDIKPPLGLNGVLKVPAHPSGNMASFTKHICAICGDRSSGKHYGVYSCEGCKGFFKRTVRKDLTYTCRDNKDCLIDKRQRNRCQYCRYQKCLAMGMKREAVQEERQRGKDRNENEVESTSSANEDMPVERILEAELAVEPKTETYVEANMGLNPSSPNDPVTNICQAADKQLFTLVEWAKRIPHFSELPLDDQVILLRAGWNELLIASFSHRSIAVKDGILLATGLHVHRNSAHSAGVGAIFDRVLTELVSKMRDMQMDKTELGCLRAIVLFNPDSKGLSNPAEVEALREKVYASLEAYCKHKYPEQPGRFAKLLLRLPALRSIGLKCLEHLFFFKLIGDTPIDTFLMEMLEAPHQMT

[6] = Toxicity in high fat diet fed hyperlipidemic ICR mouse model assessed as ratio of liver weight to body weight at 10 mg/kg, ig administered daily via gavage for 8 weeks (reference value: 4.23 +/-0.79); format: organism-based; settings: in vivo, po, 1344 h
Mus musculus [7] = assay: Upregulation of ABCA1 protein expression in liver of high fat diet fed hyperlipidemic ICR mouse model at 10 mg/kg, ig administered daily via gavage for 8 weeks by western blotting analysis; format: functional, organism-based
Mus musculus [8] = assay: Protection against hyperlipidemia in high fat diet-fed hyperlipidemic ICR mouse model assessed as reduction in serum total cholesterol content at 20 mg/kg, ig administered daily via gavage for 8 weeks by spectrophotometric analysis; format: functional, organism-based
[9] = Toxicity against normal diet-fed ICR mouse assessed as effect on plasma triglyceride content at 10 mg/kg, ig administered daily via gavage for 8 weeks by spectrophotometric analysis; format: organism-based; settings: in vivo, po, 1344 h
Mus musculus [10] = assay: Upregulation of SR-B1 protein expression in liver of high fat diet fed hyperlipidemic ICR mouse model at 10 mg/kg, ig administered daily via gavage for 8 weeks by western blotting analysis; format: functional, organism-based
Mus musculus [11] = assay: Upregulation of SR-B1 protein expression in liver of normal diet fed ICR mouse at 10 mg/kg, ig administered daily via gavage for 8 weeks by western blotting analysis; format: functional, organism-based
[12] = Toxicity in normal diet fed ICR mouse assessed as effect on food intake at 10 mg/kg, ig administered daily via gavage for 8 weeks; format: organism-based; settings: in vivo, po, 1344 h
[13] = Toxicity in normal diet fed ICR mouse assessed as body weight loss at 10 mg/kg, ig administered daily via gavage for 8 weeks; format: organism-based; settings: in vivo, po, 1344 h
Mus musculus [14] = assay: Protection against hyperlipidemia in high fat diet-fed hyperlipidemic ICR mouse model assessed as reduction in serum triglyceride content at 20 mg/kg, ig administered daily via gavage for 8 weeks by spectrophotometric analysis; format: functional, organism-based
Mus musculus [15] = assay: Protection against hyperlipidemia in high fat diet-fed hyperlipidemic ICR mouse model assessed as reduction in serum LDL-C content at 10 mg/kg, ig administered daily via gavage for 8 weeks by spectrophotometric analysis; format: functional; settings: po, 1344 h
HEK293 = assay: Agonist activity at human PPAR-beta expressed in HEK293 cells co-transfected with luciferase reporter plasmid assessed as receptor transactivation at 10 uM incubated for 18 hrs by luciferase reporter gene assay relative to control; format: cell-based
Mus musculus [16] = assay: Upregulation of SR-B1 mRNA expression in liver of high fat diet fed hyperlipidemic ICR mouse model at 10 mg/kg, ig administered daily via gavage for 8 weeks by qPCR analysis; format: functional, organism-based
Mus musculus [17] = assay: Effect on food intake in high fat diet-fed hyperlipidemic ICR mouse model at 10 mg/kg, ig administered daily via gavage for 8 weeks; format: functional, organism-based
Mus musculus [18] = assay: Protection against hyperlipidemia in high fat diet-fed hyperlipidemic ICR mouse model assessed as reduction in vacuolar degeneration of hepatocytes at 10 mg/kg, ig administered daily via gavage for 8 weeks by Hematoxylin-eosin staining based analysis; format: functional, organism-based
Mus musculus [19] = assay: Protection against hyperlipidemia in high fat diet-fed hyperlipidemic ICR mouse model assessed as reduction in hepatic TBA content at 10 to 20 mg/kg, ig administered daily via gavage for 8 weeks by colorimetric assay; format: functional, organism-based; settings: dose 10-20 mg/kg
[20] = Toxicity in high fat diet fed hyperlipidemic ICR mouse model assessed as ratio of stomach weight to body weight at 10 mg/kg, ig administered daily via gavage for 8 weeks (reference value: 1.41 +/-0.34); format: organism-based; settings: in vivo, po, 1344 h
[21] = Toxicity in normal diet fed ICR mouse assessed as ratio of kidney weight to body weight at 10 mg/kg, ig administered daily via gavage for 8 weeks (reference value: 1.33 +/-0.12); format: organism-based; settings: in vivo, po, 1344 h
Mus musculus [22] = assay: Upregulation of NPC1L1 protein expression in liver of high fat diet fed hyperlipidemic ICR mouse model at 10 mg/kg, ig administered daily via gavage for 8 weeks by western blotting analysis; format: functional, organism-based
Mus musculus [23] = assay: Upregulation of NPC1 mRNA expression in liver of high fat diet fed hyperlipidemic ICR mouse model at 10 mg/kg, ig administered daily via gavage for 8 weeks by qPCR analysis; format: functional, organism-based
[24] = Toxicity in normal diet fed ICR mouse assessed as liver histological changes at 10 mg/kg, ig administered daily via gavage for 8 weeks by Hematoxylin and eosin staining based analysis; format: organism-based; settings: in vivo, po, 1344 h
[25] = Toxicity against normal diet-fed ICR mouse assessed as effect on plasma HDL-C content at 10 mg/kg, ig administered daily via gavage for 8 weeks by spectrophotometric analysis; format: organism-based; settings: in vivo, po, 1344 h
[26] = Toxicity in high fat diet fed hyperlipidemic ICR mouse model assessed as ratio of lung weight to body weight at 10 mg/kg, ig administered daily via gavage for 8 weeks (reference value: 0.93 +/-0.28); format: organism-based; settings: in vivo, po, 1344 h
Mus musculus [27] = assay: Upregulation of ABCG5 protein expression in liver of high fat diet fed hyperlipidemic ICR mouse model at 10 mg/kg, ig administered daily via gavage for 8 weeks by western blotting analysis; format: functional, organism-based
Mus musculus [28] = assay: Upregulation of ABCG1 mRNA expression in liver of high fat diet fed hyperlipidemic ICR mouse model at 10 mg/kg, ig administered daily via gavage for 8 weeks by qPCR analysis relative to control; format: functional

**Q.** Which Ratio [1] does the source give for `CN1c2ccccc2C(=O)N2CCc3c([nH]c4ccccc34)C21` (centres undefined) here?
**A.** The Ratio was 0.49.

**Q.** And the inhibition in vivo at 10 mg/kg (Mus musculus [2])?
**A.** Its inhibition in vivo at 10 mg/kg is 33.2%.

**Q.** What about the inhibition in vivo at 10 mg/kg (Mus musculus [3]) of the same compound?
**A.** Its inhibition in vivo at 10 mg/kg is 34%.

**Q.** And the Activity (Mus musculus [4])?
**A.** The Activity was “Active”.

**Q.** What about the fold change (FC) [5] of the same compound?
**A.** The fold change (FC) was 1.04.

**Q.** And the Ratio [6]?
**A.** Its Ratio is 3.85.

**Q.** What about the Activity (Mus musculus [7]) of the same compound?
**A.** The Activity was “inactive”.

**Q.** What about the Activity (Mus musculus [8]) of the same compound?
**A.** The Activity was “Active”.

**Q.** And the Activity [9]?
**A.** Its Activity is “Non-Toxic”.

**Q.** What about the Activity (Mus musculus [10]) of the same compound?
**A.** Its Activity is “Active”.

**Q.** What about the Activity (Mus musculus [11]) of the same compound?
**A.** Its Activity is “Active”.

**Q.** What about the Activity [12] of the same compound?
**A.** The Activity was “Non-Toxic”.

**Q.** And the Activity [13]?
**A.** The Activity was “Toxic”.

**Q.** And the Activity (Mus musculus [14])?
**A.** The Activity was “Active”.

**Q.** What about the inhibition in vivo at 10 mg/kg (Mus musculus [15]) of the same compound?
**A.** Its inhibition in vivo at 10 mg/kg is 65.1%.

**Q.** And the fold change (FC) (HEK293)?
**A.** Its fold change (FC) is 1.53.

**Q.** And the Activity (Mus musculus [16])?
**A.** The Activity was “inactive”.

**Q.** And the Activity (Mus musculus [17])?
**A.** The Activity was “inactive”.

**Q.** And the Activity (Mus musculus [18])?
**A.** The Activity was “Active”.

**Q.** What about the Activity (Mus musculus [19]) of the same compound?
**A.** Its Activity is “Active”.

**Q.** And the Ratio [20]?
**A.** The Ratio was 1.22.

**Q.** What about the Ratio [21] of the same compound?
**A.** Its Ratio is 1.33.

**Q.** What about the Activity (Mus musculus [22]) of the same compound?
**A.** The Activity was “inactive”.

**Q.** And the Activity (Mus musculus [23])?
**A.** The Activity was “inactive”.

**Q.** What about the Activity [24] of the same compound?
**A.** The Activity was “Non-Toxic”.

**Q.** What about the Activity [25] of the same compound?
**A.** The Activity was “Non-Toxic”.

**Q.** What about the Ratio [26] of the same compound?
**A.** Its Ratio is 0.81.

**Q.** What about the Activity (Mus musculus [27]) of the same compound?
**A.** The Activity was “inactive”.

**Q.** What about the “fold change (FC)” value (Mus musculus [28]) of the same compound?
**A.** The value was 3.6.
